This passage reports Kd results from PMC9405973, “Altered Conformational Landscape upon Sensing Guanine Nucleotides in a Disease Mutant of Elongation Factor-like 1 (EFL1) GTPase” (Biomolecules, 2022).

The assay has as its target T1, Efl1 wild type in complex with Sdo1 and 60S subunits (Saccharomyces cerevisiae, UniProt P53893).
T1 construct: made in house; host or cells: Efl1: Saccharomyces cerevisiae; Sdo1: Escherichia coli C41; 60S subunits purified from S. cerevisiae strain JD1370
T1 sequence (P53893 1-1110): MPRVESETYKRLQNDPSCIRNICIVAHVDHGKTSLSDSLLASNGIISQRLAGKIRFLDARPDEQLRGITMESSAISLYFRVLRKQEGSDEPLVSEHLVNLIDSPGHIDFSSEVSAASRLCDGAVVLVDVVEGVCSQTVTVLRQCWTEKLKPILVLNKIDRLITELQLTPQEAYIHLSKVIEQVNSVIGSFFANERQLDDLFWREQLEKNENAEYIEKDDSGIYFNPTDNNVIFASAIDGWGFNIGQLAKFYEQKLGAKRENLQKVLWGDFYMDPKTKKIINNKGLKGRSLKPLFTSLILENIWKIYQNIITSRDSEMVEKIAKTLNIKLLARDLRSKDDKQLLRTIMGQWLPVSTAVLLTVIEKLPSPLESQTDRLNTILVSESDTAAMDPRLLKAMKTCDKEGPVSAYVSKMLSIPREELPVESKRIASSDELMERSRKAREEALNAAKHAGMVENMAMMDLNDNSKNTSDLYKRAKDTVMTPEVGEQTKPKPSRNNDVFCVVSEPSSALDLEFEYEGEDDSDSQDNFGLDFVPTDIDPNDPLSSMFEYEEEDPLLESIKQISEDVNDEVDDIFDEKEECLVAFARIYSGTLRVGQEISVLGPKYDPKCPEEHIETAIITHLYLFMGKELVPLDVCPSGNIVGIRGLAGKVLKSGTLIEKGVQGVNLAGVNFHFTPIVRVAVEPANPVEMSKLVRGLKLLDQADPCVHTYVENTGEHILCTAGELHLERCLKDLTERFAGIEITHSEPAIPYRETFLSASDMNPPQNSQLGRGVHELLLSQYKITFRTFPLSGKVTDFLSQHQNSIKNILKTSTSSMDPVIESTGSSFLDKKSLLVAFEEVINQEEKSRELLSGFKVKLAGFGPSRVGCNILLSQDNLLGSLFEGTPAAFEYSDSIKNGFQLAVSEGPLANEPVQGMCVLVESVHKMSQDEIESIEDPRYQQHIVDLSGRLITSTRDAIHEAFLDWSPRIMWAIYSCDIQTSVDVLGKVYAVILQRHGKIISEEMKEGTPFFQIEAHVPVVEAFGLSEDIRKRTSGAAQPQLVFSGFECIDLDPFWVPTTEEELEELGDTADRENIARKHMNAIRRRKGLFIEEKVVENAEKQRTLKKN
T1 sequence (Q07953 1-250 partner): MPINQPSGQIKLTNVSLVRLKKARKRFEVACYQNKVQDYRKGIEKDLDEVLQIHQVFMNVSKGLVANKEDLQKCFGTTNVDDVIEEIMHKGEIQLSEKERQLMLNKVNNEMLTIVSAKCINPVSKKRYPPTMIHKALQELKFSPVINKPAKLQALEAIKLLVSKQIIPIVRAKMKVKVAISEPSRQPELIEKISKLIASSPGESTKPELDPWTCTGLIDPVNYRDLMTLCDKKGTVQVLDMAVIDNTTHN
Put plainly: Steady state fluorescence binding of mant-GTP to Efl1 wild type in complex with Sdo1 and 60S subunits. The note with it: 25 °C, one-binding-site model; read-out: dissociation constant (Kd). How it is done: We measured the binding of different Efl1 constructs present in complex with Sdo1 and 60S subunits to the fluorescence GTP analogue, mant-GTP, by following the increase in the fluorescence signal after excitation at 355 nm. Fluorescence intensities were plotted as a function of increasing nucleotide concentrations, and the dissociation constant (Kd) was calculated by fitting the data to a one-binding-site model (Supplementary Figure S1B).
Hydrolysis of GTP was measured using the Enzchek Phosphate Assay kit (Molecular Probes) as described by Webb. Standard reactions consisted of 100 µL containing 6 µM of Efl1 R1086Q and Efl1 L910K, 0.3 mM MESG, 1.0 U purine nucleoside phosphorylase (PNP) and the indicated amounts of GTP. […]
Reactions were initiated and the GTPase was added after 3 min. Time courses were followed by recording the change in absorbance at 360 nm in a Cary 60 UV -Vis spectrophotometer (Agilent Technologies). Background absorbance was recorded prior to the addition of the GTPase and subtracted from the sample signals. The slope of the measured time courses corresponded to the GTP hydrolysis rate. […] Data were analysed by nonlinear regression to the M ichaelis-Menten equation with the program Origin Version 5.0 (OriginLab, Co., Northampton, MA). […]
Steady state fluorescence measurements […]
Maximum emission at 440 nm was replotted as a function of nucleotide concentration and analysed

For `CNc1ccccc1C(=O)O[C@H]1[C@@H](O)[C@H](n2cnc3c(=O)[nH]c(N)nc32)O[C@@H]1COP(=O)(O)OP(=O)(O)OP(=O)(O)O` [mant-GTP], the Kd was 36 µM.
